Test results published in patent US6300470A, “Antibiotic cryptdin peptides and methods of their use” (priority 1999, dated 2001).

How the values were obtained:
Type in all cases: cell-based
[1] = tested on: isogenic phoP mutant of S. typhimurium (strain CS015 phoP102::Tn10d-Cam); experiment: agar radial diffusion assay, phoP mutant S. typhimurium; conditions: HEPES or PIPES buffer; 100 μg/ml or 300 μg/ml
Protocol: (§1) FIGS. 7.A. and 7.B. depict the antimicrobial activity of mouse cryptain 1 (SEQ ID NO: 6). Samples of purified natural mouse cryptdin 1 (FIG. 7.A.) or rabbit NP-1 (FIG. 7.B.) were dissolved in 0.01% acetic acid and pipetted into wells produced in a 0.6, agarose/0.3% tryptone plate containing 1×10^6 log phase bacterial cells. After incubation at 37° C. for 18 hr, antimicrobial activity was evaluated by measuring the diameters of the clear zones. Closed circles denote wild type S. typhimurium; open circles denote the phoP^- mutant. […]
(§2) Antibacterial activity was measured in an agar radial diffusion assay (Lehrer et al., supra, 1991b) using wild type S. typhimurium (ATCC 10428) or an isogenic phoP mutant of S. typhimurium (strain CS015 phoP102::Tn10d-Cam, Miller et al., supra, 1989). […]
(§3) Purified cryptdin peptides were dissolved at 3 to 300 μg/ml in 0.010% acetic acid and activity was examined against E. coli ML35 (ATCC). […] Antibacterial activity was determined by measuring the diameter of learing around each well and plotted as a function of peptide concentration.

[2] = tested on: wild type S. typhimurium (ATCC 10428); experiment: agar radial diffusion assay, wild type S. typhimurium; conditions: HEPES or PIPES buffer; 100 μg/ml or 300 μg/ml
Protocol: as §1, §2, §3

S. aureus = experiment: radial diffusion assay, S. aureus growth inhibition; conditions: higher concentrations (100 μg/ml and 300 μg/ml)
E. coli ML35 = experiment: radial diffusion assay, E. coli ML35; conditions: 10 mM PIPES
Protocol: Purified cryptdin peptides were dissolved at 3 to 300 μg/ml in 0.010% acetic acid and activity was examined against E. coli ML35 (ATCC). In the radial diffusion assay, […] peptide solution was transferred into wells formed in plates of 1% agarose buffered with 10 mM PIPES (pH 7.4) and containing 1×10^6 log-phase bacteria grown in trypticase soy broth. After 3 hr at 37° C., the plates were overlayed with 0.8w agarose containing 2× trypticase soy broth and incubated overnight. The antibacterial activities of cryptdin peptides was compared with the activity of rabbit neutrophil defensin NP-1, which was purified from peritoneal exudates as described by Selsted et al. (J. Biol. Chem. 260:4579-4584 (1985), which is incorporated herein by reference). Antibacterial activity was determined by measuring the diameter of learing around each well and plotted as a function of peptide concentration.

S. areus 502A cells = experiment: bactericidal assay, S. aureus 502A; conditions: 10 μg/ml
Protocol: (§4) In order to determine whether the effect of the cryptdin peptides against E. coli is bacteriostatic or bacteriocidal, bacterial killing was quantitated as a function of time. Bactericidal asgayg were performed by incubating 1-2×10^6 log-phase bacteria in 10 mM PIPES containing 10 μg peptide/ml. After incubation for 15 or 30 min at 37° C., aliquots were removed, serially diluted and plated on trypticase soy agar. Bactericidal activity was quantitated by counting colonies after overnight incubation at 37° C.
(§5) The bactericidal activity of rat cryptdin 1 also was examined. E. coli ML35 cells, S. areus 502A cells or mutant or wild type S. typhimuruim cells were incubated with various concentrations of rat cryptdin 1 or rabbit NP-1.

E. coli ML35 cells = experiment: bactericidal assay in suspension, E. coli
Protocol: as §4, §5

[3] = tested on: mutant S. typhimuruim cells; experiment: bactericidal assay, mutant S. typhimurium
Protocol: as §4, §5

[4] = tested on: wild type S. typhimuruim cells; experiment: bactericidal assay, wild type S. typhimurium; conditions: 10 μg/ml
Protocol: as §4, §5

Row | Sequence | preventing growth of mutant S. typhimurium compared with NP-1 [1] | inhibiting growth of wild type S. typhimurium compared with NP-1 [2] | inhibiting growth of S. aureus compared with same concentration of NP-1 (S. aureus) | activity against E. coli ML35 relative to rabbit NP-1 (E. coli ML35; at concentration above 100 μg/ml) | activity against E. coli ML35 relative to NP-1 (E. coli ML35; compared at 100 μg/ml and 300 μg/ml) | S. aureus cells killed (S. areus 502A cells) | E. coli cells killed (E. coli ML35 cells; 10 μg/ml) | killing of E. coli cells, rat cryptdin 1 compared with NP-1 (E. coli ML35 cells; various concentrations) | mutant S. typhimurium cells killed ([3]; 10 μg/ml) | killing of mutant S. typhimurium cells, rat cryptdin 1 compared with NP-1 ([3]; various concentrations) | killing of wild type S. typhimurium [4]
1 | LSKKLICYCRIRGCKRRERVFGTCRNLFLTFVFCC [cryptdin 5] | more effective than the same concentration of NP-1 | more effective than the same concentration of NP-1 | more effective than the same concentration of NP-1 | approximately 5 × | – | – | – | – | – | – | –
2 | GLLCYCRKGHCKRGERVRGTCGIRFLYCCPR [cryptdin 4] | more effective than the same concentration of NP-1 | more effective than the same concentration of NP-1 | more effective than the same concentration of NP-1 | – | at least 50 × | – | – | – | – | – | –
3 | LKQCHCRKFCRPYEKAEGSCRPGLFIKRKICCIQQWTPG [rat cryptdin 1] | – | – | – | – | – | about 90% | greater than 99% | more effective than NP-1 | greater than 99% | more effective than NP-1 | relatively ineffective
